As a reminder, the melting point is the temperature, or range, at which the solid turns liquid. Compound `COc1ccc(/C=C/C(=O)c2ccc(OCc3ccccc3)cc2OCc2ccccc2)c(OC)c1C` gave a melting point of 125 °C.
Next, `O=C(C=Cc1cccc2ccccc12)C=Cc1cccc2ccccc12`: 128 °C; `CC(C)(C)C1=NC(=Cc2[nH]c(C(C)(C)C)c3ccccc23)c2ccccc21`: 195 °C; `CSc1[nH]ccc1[N+](=O)[O-]`: 212 to 213 °C.
Turning to `CCOC(=O)C(=CNc1ncnc2ccc(NS(C)(=O)=O)cc12)C(=O)OCC`, the melting point is 200 to 202 °C.
Next, `COC(=O)c1ccc(S(C)(=O)=O)c(C(=O)NCC(C)CO)c1Cl` (stereo not given): 70 to 72 °C.
`CC(=O)N1C(C(=O)c2cn(C(=O)OC(C)(C)C)c3ccccc23)CSC1c1cccnc1` (stereo not given) had a melting point of 141 to 143 °C.
For `C#CCC1CC2C3CCC(=O)C3(C)CCC2C2(C)CCC(=O)C=C12` (stereo not given), the melting point lay in the range of 145 to 146 °C.
In turn, `COc1cccc(NC(=O)NCC2(c3ccccc3)CCCCC2)c1` displayed a melting point of 120 to 122 °C.
Next, `O=C1NCCc2[nH]c3cc(F)ccc3c21`: 213 to 215 °C.
Turning to `CCC(=O)OCOC(=O)c1cc(S(N)(=O)=O)c(Cl)cc1NCc1ccco1`, the melting point is 141 to 142 °C.
In turn, `O=[N+]([O-])c1cc(-n2cccc2)ccc1F` returned a melting point of 79 to 81 °C.
In the case of `COc1ccc2[nH]cc(C3=C(c4c[nH]c5ccccc45)C(=O)NC3=O)c2c1`, the melting point stood at 280 °C.
As to `CN1C(=O)C2(COc3cc4c(cc32)CCO4)c2ccccc21` (stereo not given), the melting point was 187 to 190 °C.
Compound `COC(=O)c1cccnc1Cn1cccc1C=O` returned a melting point of 91 to 93 °C.
`C=CCC1(CC=C)c2cccc(Cl)c2C(=O)c2c(OC)cccc21` came in with a melting point of 151 to 153 °C.
As for `CC(=O)NC(=O)CSCc1ccccc1`, the melting point fell in the range of 86 to 87 °C.
On to `CC(C)(C)OC(=O)C(=O)C=Cc1cccnc1`, for which the melting point lay within 51 to 52 °C.
Compound `COC(=O)c1ccc(C(O)=CC(=O)c2cc([Si](C)(C)C)ccc2O)cc1` gave a melting point of 130 to 131 °C.
Turning to `CCOc1cc(Cc2cnc(N)nc2N)cc(OCC)c1-c1ccc(CNCC(F)(F)F)cc1`, the melting point was in the range of 146 to 149 °C.
With `OCc1c(Cl)nc2ccccc2c1-c1ccc(F)cc1`, the melting point was 159 to 160 °C.
The compound `O=C(O)CC(Cc1ccccc1)N1C(=O)c2ccccc2C1=O` (stereo not given) yielded a melting point of 123 to 124 °C.
Turning to `CCOP(=O)(OCC)SCc1ccc(-c2nc(SC)c3cc(Br)ccc3n2)cc1`, the melting point fell in the range of 126 to 127 °C.
`CCOC(=O)CNC(=O)c1cccc(Cl)c1` registered a melting point of 70 to 72 °C.
As for `CC(C)(C)[Si](C)(C)OC1CN(c2ccc(N3C[C@H](CO)OC3=O)cc2F)C1`, the melting point was in the range of 183 to 186 °C.
Next, `NC1=NS(=O)N=C1NCCCOc1cccc(CN2CCCCC2)n1` (stereo not given): 145 to 147 °C.
Compound `Cc1cc2c(cc1C)N(C)C(=O)C(CC(=O)O)C2c1ccccc1Cl` (stereo not given) gave a melting point of 210 to 215 °C.
Regarding `CC(CC(F)(F)C(F)(F)C(F)(F)C(F)(F)C(F)(F)C(F)(F)CC(C)C(=O)O)C(=O)O` (stereo not given), the melting point is 150 to 151 °C.
With `CCCc1cc(C(=O)OC)ccc1OCCCCCOc1ccc2c(c1CCC)OC(C(=O)OC)CC2` (stereo not given), the melting point lay in the range of 63 to 64 °C.
`COC(=O)[C@@H]1COC(=S)N1Cc1ccccc1` came in with a melting point of 101 to 102 °C.
With `N#CC1c2ccccc2CCc2ccccc21`, the melting point lay in the range of 89 to 90 °C.
The same measure for `Cc1cc(F)ccc1C1=C(c2ccc(S(C)(=O)=O)cc2)CCC1`: 112 to 114 °C; for `CCCCCCCCCCNC(=O)C=C(c1ccccc1)c1ccc(N)cc1`: 90 to 100 °C; for `CC(C#Cc1ccc(C=Cc2ccccc2)o1)N(O)C(N)=O` (stereo not given): 168 °C.
For `COCc1nc2c(N)cc(Br)cc2n1C`, the melting point fell in the range of 138 to 140 °C.
In turn, `O=C(O)c1c2c(nc3ccc(F)cc13)-c1ccc(-c3ccccc3F)cc1CCCC2` returned a melting point greater than 300 °C.
`CC(C)(C)OC(=O)C(Nc1ccccc1)C(=O)N1CCCC1` (racemic) gave a melting point of 80 °C.
As to `CCCCCCCCCCCCCCCCCCNC(=O)NCCCN`, the melting point was 116 to 140 °C.
Next, `CCCCc1nc2ccccc2n1Cc1ccc(C(=O)Nc2cccc3[nH]ccc23)cc1`: 196 °C; `CN(C)CCc1cc2occc2c(=O)[nH]1`: 97.5 to 98 °C.
The same measure for `O=C1c2ccccc2-c2ccc(Cl)c3cccc1c23`: 179 to 190 °C.
Regarding `CCOC(=O)c1cc(O)nn1-c1ncc(Cl)cc1Cl`, the melting point was in the range of 164 to 167 °C.
`O=S(=O)(Nc1cc(Cl)c(Oc2nc3ccc(Cl)cc3s2)c(Cl)c1)c1ccc(Cl)cc1Cl` showed a melting point of 73 to 75 °C.
Regarding `CCCC(CC(=O)NC(=O)OC(C)(C)C)Nc1ccc(C)cc1` (stereo not given), the melting point is 63 to 64 °C.
For `CCOC(=O)c1nc2cc(C)sc2nc1N`, the melting point was in the range of 121 to 123 °C.
The same measure for `CN1OC(c2ccc(Cl)cc2)CC1(Cn1ccnc1)c1ccco1` (stereo not given): 99 to 101 °C; for `CS(=O)(=O)N(c1cc(-c2ncc(C(F)(F)F)cc2Cl)ccc1Cl)S(C)(=O)=O`: 230 to 231 °C; for `CC1(C)Cc2c(c(N3CCOCC3)nc3sc4c(N(CCN5CCOCC5)Cc5cccnc5)ncnc4c23)CO1`: 150 °C.
The same measure for `CC(C)N(CCN1C(=O)C(=O)c2ccccc21)C1CCCCC1`: 103 to 106 °C.
In turn, `COc1cc(C=CC(=O)OC2C(O)C3CC(OC(=O)c4cc(OC)c(OC)c(OC)c4)CC2[N+]3(C)[O-])cc(OC)c1OC` (stereo not given) showed a melting point of 118 to 121 °C.
Next, `Fc1ccc([C@@]2(Cn3nc[nH]c3=S)O[C@@H]2c2ccccc2C(F)(F)F)cc1F` (relative stereo): 143 to 146 °C; `CC[C@H](C)[C@H](NC(=O)NCc1ccccc1)C(=O)N[C@H](CO)Cc1c[nH]c2ccccc12`: 132 to 133 °C; `COc1cc(C)c(C(=O)c2c(C(F)(F)F)ccnc2Cl)c(OC)c1OC`: 59 to 62 °C.
The same measure for `CC(CS)C(=O)N1C(C(=O)O)CC2CCCCC21` (stereo not given): 141 to 142 °C; for `CC(C)(O)c1cc(C(F)(F)F)cc(C(F)(F)F)c1`: 59 to 60 °C; for `CCCCCNS(N)(=O)=O`: 60 to 63 °C.
On to `Cn1c(=O)ccn(C2C=CC(CO)O2)c1=O` (stereo not given), for which the melting point fell in the range of 203 to 204 °C.
The same measure for `Clc1ccc(-c2ccnc(CN3CCC(c4ccc(Cl)cc4)CC3)c2)cc1`: 89 to 91 °C.
On to `O=C(O)C1CCN1C(c1ccccc1)c1ccccc1` (stereo not given), for which the melting point lay in the range of 132 to 137 °C.
Regarding `CC(=O)c1c(Nc2ccccc2)n[nH]c1C`, the melting point was 246 to 247 °C.
For `Nc1nc(-n2cc(C(=O)O)c(=O)c3cc(F)c(NCCCO)c(Cl)c32)c(F)cc1F`, the melting point lay within 136 to 142 °C.
On to `Nc1c(CO)cccc1[N+](=O)[O-]`, for which the melting point came to 100 °C.
In turn, `COc1ccc(C2(CCN3CCC(C(=O)c4nc5ccccc5[nH]4)CC3)CCN(C(=O)c3cc(OC)c(OC)c(OC)c3)C2)cc1OC` (stereo not given) yielded a melting point of 113 to 116 °C.
Compound `CCNc1nc2ccccc2n2c(CC)nnc12` displayed a melting point of 235 to 238 °C.
`Cn1nnnc1C(C=O)=C(c1ccc(F)cc1)c1ccc(F)cc1` showed a melting point of 135 to 137 °C.

Values taken from a melting point compilation (Tetko et al.; mined from patent text by program, amines drawn as free bases though some values may be those of a salt).
